According to patent publication US9125940B2, “Compositions and methods for treating macular edema” (priority 2011, dated 2015):

Tested on: macular edema
Test: Case report Example 1: patient with macular edema after central vein occlusion in the left eye, OCT, vision acuity and eye pressure
Format: in vivo, human
From the text: A patient experienced central vein occlusion in their left eye and subsequently suffered macular edema in 2005. Weak drusens were found in both of their eyes. […] The patient received corsteroid injection in the left eye. The macular edema went away for four months. However, the left eye pressure went up to 35-40 mmHg. Eye drops for lowering eye pressure were used to treat the high eye pressure. Within half a year, the patient developed cataract in their left eye and shortly thereafter advanced to a point that their left eye lost most vision and the eye specialist recommended surgery to remove the cataract. At the time of the surgery, it was discovered that the patient's macular edema had come back and it was rather severe. Avastin injection was then employed to treat macular edema. The edema went away for a month but still came back 2-3 months afterwards. At this point, the patient was notified that regular injection would be required for the rest of their life. As shown in the images from Optical Coherence Tomography (OCT) (FIG. 1), macular edema returned three months after the Avastin injection. Such was a repeated phenomenon since 2005, for more than three years. Macular edema re-occurred typically 3 months following Avastin injection. […].

[1] = June 2008, before treatment with the composition, FIG. 1

Avastin: Avastin injection employed to treat macular edema (anti-VEGF)
ocular pressure three months after injection [1]: 35 mmHg | vision acuity three months after injection [1]: 20/40 | time to re-occurrence of macular edema following injection (left eye, intravitreal injection, repeated for more than three years): ~3 months
